Columns and labels:
Test in all cases: amino acid adenylation, pyrophosphate release, inorganic pyrophosphatase / malachite green, […] nm
Assay type in all cases: biochemical
Details in all cases: 5 mM ATP, 10 mM MgCl2, 6 mM amino acid, 100 mM NaCl, 50 mM Tris-HCl pH 7.5, 25 °C
PlpD A1 = target: T1, PlpD A1 (Paenibacillus elgii, UniProt I1Z6A2)
T1 construct: pET28a, E. coli BL21(DE3), Ni-purified, His-tag (C-terminal by primers, inferred); borders by primers plpD-A1-F/R, N-term MENILT, C-term GAEYE then LE-tag (translated from primers)
T1 sequence (I1Z6A2 446-978): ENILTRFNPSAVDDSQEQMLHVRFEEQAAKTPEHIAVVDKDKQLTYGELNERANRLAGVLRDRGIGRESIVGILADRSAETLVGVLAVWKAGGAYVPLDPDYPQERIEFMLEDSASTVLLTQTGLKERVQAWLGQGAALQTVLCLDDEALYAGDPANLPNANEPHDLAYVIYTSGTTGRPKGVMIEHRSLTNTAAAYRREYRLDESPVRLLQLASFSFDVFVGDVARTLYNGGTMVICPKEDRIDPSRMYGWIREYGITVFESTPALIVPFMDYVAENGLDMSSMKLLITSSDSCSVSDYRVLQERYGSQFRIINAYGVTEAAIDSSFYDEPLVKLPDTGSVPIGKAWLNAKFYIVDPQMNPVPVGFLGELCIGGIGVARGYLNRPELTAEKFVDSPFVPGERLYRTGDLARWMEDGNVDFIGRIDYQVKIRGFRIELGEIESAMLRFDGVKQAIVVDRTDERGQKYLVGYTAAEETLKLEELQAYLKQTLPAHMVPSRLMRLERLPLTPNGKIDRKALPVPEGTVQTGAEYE

PlpE A3 = target: T2, PlpE A3 (Paenibacillus elgii, UniProt I1Z6A3)
T2 construct: pET28a, E. coli BL21(DE3), Ni-purified, His-tag (C-terminal by primers, inferred); borders by primers plpE-A3-F/R, N-term MAAEQT, C-term ADYVA then KL-tag (translated from primers)
T2 sequence (I1Z6A3 2324-2843): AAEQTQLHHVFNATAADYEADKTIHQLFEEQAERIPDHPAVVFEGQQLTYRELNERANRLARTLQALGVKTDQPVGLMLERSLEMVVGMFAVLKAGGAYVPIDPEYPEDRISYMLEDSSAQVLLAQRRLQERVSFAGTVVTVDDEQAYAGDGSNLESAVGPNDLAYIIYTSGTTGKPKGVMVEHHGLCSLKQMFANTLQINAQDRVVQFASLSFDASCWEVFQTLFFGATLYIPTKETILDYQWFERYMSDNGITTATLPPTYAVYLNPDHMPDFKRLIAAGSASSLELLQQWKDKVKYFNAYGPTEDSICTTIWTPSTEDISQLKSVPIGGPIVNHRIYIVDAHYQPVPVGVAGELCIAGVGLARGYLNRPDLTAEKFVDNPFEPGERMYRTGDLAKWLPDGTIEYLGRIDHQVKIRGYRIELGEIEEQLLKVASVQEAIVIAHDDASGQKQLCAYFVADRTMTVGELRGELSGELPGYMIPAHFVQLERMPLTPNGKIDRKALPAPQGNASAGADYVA

PlpF A1 = target: T3, PlpF A1 (Paenibacillus elgii, UniProt I1Z6A4)
T3 construct: pET28a, E. coli BL21(DE3), Ni-purified, His-tag (N-terminal by primers, stop codon in reverse primer, inferred); borders by primers plpF-A1-F/R, N-term (AS)LSDSE, C-term TGLE (translated from primers)
T3 sequence (I1Z6A4 entry or part of it): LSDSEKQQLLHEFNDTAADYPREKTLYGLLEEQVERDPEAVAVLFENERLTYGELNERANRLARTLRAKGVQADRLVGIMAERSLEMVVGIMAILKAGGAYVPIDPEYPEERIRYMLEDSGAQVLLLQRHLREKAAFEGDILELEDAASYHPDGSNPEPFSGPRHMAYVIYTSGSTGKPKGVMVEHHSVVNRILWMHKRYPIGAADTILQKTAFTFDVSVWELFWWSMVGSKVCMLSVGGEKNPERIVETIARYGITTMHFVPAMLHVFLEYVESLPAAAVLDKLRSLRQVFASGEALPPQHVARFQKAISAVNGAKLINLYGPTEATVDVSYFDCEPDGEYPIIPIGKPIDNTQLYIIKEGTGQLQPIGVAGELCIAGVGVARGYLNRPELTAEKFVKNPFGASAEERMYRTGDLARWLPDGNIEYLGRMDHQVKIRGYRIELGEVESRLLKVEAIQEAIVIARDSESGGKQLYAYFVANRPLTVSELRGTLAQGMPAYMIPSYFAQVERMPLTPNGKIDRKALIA

In the case of `NCC[C@H](N)C(=O)O` [L-Dab], the “amino acid adenylation, pyrophosphate release, inorganic pyrophosphatase / malac” value (PlpD A1) is reported as “PlpD A1, PlpE A3, and Plp F A1 clearly exhibited the highest activity for L-Dab”.
With `N[C@@H](Cc1ccccc1)C(=O)O` [L-Phe] the “amino acid adenylation, pyrophosphate release, inorganic pyrophosphatase / malac” value (PlpE A3) was “clearly exhibited the highest activity for L-Dab, L-Phe, and L-Ser, respectively”.
For `N[C@@H](CO)C(=O)O` [L-Ser], the “amino acid adenylation, pyrophosphate release, inorganic pyrophosphatase / malac” value (PlpF A1) was “clearly exhibited the highest activity for L-Dab, L-Phe, and L-Ser, respectively”.
